From paper PMC12259270, “Sensory neuron–expressed FGF13 controls nociceptive signaling in diabetic neuropathy models” (The Journal of Clinical Investigation, 2025)
Values joined by “and” are separate entries in the source; they are usually repeats but may differ in a detail not shown here. Equal entries are not always repeated. Residues, ends and D or L forms follow the SMILES beside them. *: point of attachment. Cbz = O=C(OCc1ccccc1)*; NHPh = c1ccc(N*)cc1; OtBu = CC(C)(C)O*

Molecular target: T1, FGF13/Nav1.7 CTD complex (Homo sapiens, UniProt Q92913)
T1 construct: Full-length FGF13-1b (aa 1-192) was subcloned into appropriate plasmids; Nav1.7 residues 1780-1977; expressed in transfected cells; host or cells: HEK293 (inferred; the LCA paragraph only says 'cells')
T1 sequence (Q92913 1-192 isoform Q92913-2): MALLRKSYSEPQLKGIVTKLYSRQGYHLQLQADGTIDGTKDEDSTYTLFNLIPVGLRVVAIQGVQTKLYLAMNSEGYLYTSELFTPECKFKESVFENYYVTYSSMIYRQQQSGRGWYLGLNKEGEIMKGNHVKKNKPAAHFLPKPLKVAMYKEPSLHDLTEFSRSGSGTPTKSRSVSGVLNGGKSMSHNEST
Experiment: Split-luciferase complementation assay (LCA), CLuc-FGF13/CD4-Nav1.7-CTD-NLuc
Type: cell-based
Set-up: key to LCA dose response, Mean (Figure 1B): % of mean signal of per-plate 0.5% DMSO control wells
Settings: for Percentage luminescence, Mean: Fig 1B dose response; for Luminescence signal over time, mean: FGF13, PW164
Source text: The respective gene ID numbers used in this study are as follows: NM_033642 (human, FGF13-1b) and NM_002977 (human SCN9A). Full-length FGF13-1b (aa 1-192) was subcloned into appropriate plasmids for use in this investigation, unless otherwise noted. For consistency with AlphaFold modeling presented, numbering of point mutations to FGF13-1b are based on the longest FGF13 isoform (FGF13-1a, NM_004114.2). CLuc-FGF13, […]
and constructs expressing the CLuc or the NLuc fragments of Firefly ( Photinus pyralis) luciferase (24) respectively were engineered, mutated (CLuc-FGF13R110A) and sequenced at the Molecular Genomics Core (University of Texas Medical Branch). The CD4 -Nav1.7-CTD-NLuc cassette was synthesized from GeneArt (Nav1.7 residues 1780-1977) (ThermoFisher) and subcloned at 5'-HindIII and 3’-BsiWi restriction sites in pcDNA3.1 (Invitrogen). Additionally, FGF13 was amplified with polymerase chain reaction (PCR) by using gene-specific primers, and subcloned in pcDNA3.1 at 5’ -BsiWi and 3’-Not I restriction sites. […]
Cell Culture and transfections
HEK293 cells were purchased from ATCC (catalog # CRL-1573). Cells were cultured and incubated at 37 °C with 5% CO2 in medium with equal volumes of Dulbecco modified essential medium (DMEM) and F12 […]
Split-luciferase Complementation Assay (LCA)
Twenty-four hours post transfection, cells were trypsinized using TrypLE (Gibco; cat # 12604013), centrifuged at 1750 rpm for 5 min, triturated in medium, and seeded into white clear-bottom 96-well CELLSTAR µClear® plates (Greiner Bio -One; cat # 655073 ) at ~0.8 x 10^5 cells per well in 200 µl of medium. The cells were incubated for another 24 hours, and then the growth medium was replaced with 100 µl serum -free, phenol red -free DMEM/F-12 medium (Invitrogen). All compounds from the PW - and the ZL-series, including PW164 and ZL192, were dissolved in DMSO, added to a final concentration of 1 –500 μM (0.5 % DMSO) in the serum -free medium and then cells were incubated for two hours. The bioluminescence reaction was initiated by injection of 100 μl of D -luciferin substrate (1.5 mg/ml dissolved in PBS) using a Synergy H4 multimode microplate reader (BioTek). Luminescence readings were initiated after 3 s of mild plate shaking and performed at 2 min intervals for 20-30 min with integration times of 0.5 s, and the c ells were maintained throughout the measurements at 37 °C. Raw signal intensity was computed by averaging peak luminescence plus two adjacent time points.
Normalized signal intensity was expressed as the percentage of mean signal intensity relative to per plate control wells treated with 0.5% DMSO. […]
The FGF13 was immobilized to the final 1 0050 RU, and Nav1.7 to the 10 or 1000 RU, and no protein was coupled to the control channel of the chip. For each compound, stock solution (50 mM) was serially diluted from 300 to 1 µM; the Nav1.7 -CTD peptide (1876 -1899, 23 amino acids, MW ~2.8 kDa) was se rially diluted from 150 to 1 nM in PBS-P+ (PBS supplemented 0.005% with tween 20). Samples were injected over the chip for 60 s followed by dissociation for 120 s at the flow rate 40 µl/min; finally, the chip was regenerated using the solution of 1.5 M NaCl, 3% DMSO for 180 s. The interaction of compound or un-conjugated Nav1.7 -CTD peptide with FGF13, as […]

CC(=O)N[C@@H](Cc1ccccc1)C(=O)N[C@@H](CC(C)C)C(=O)N1CCC[C@H]1C(=O)N[C@@H](CCCCN)C(=O)Nc1ccccc1 [ZL192] (Ac-FLPK-NHPh)
LCA signal, FGF13 (Figure 1B), individual replicates (FGF13, ZL192 vs Vehicle): 148.142 and 186.697 and 151.094 and 172.833 and 154.782 and 172.987 and 159.506 and 193.88 and 161.695 and 170.692 and 150.24 and 163.294 | EC50 (LCA dose-response, Fig 4B, read-out: EC50, increase of FGF13/Nav1.7 complex assembly): 28 ± 5 µM | LCA dose response, Mean (Figure 1B) (Log (conc(M)) -3.6): 132.85 | LCA dose response, Mean (Figure 1B) (Log (conc(M)) -3.82): 139.626 | LCA dose response, Mean (Figure 1B) (Log (conc(M)) -4): 140.168 | LCA dose response, Mean (Figure 1B) (Log (conc(M)) -4.12): 146.164 | LCA dose response, Mean (Figure 1B) (Log (conc(M)) -4.22): 133.106 | LCA dose response, Mean (Figure 1B) (Log (conc(M)) -4.3): 141.107 | LCA dose response, Mean (Figure 1B) (Log (conc(M)) -4.4): 130.374 | LCA dose response, Mean (Figure 1B) (Log (conc(M)) -4.6): 116.119 | LCA dose response, Mean (Figure 1B) (Log (conc(M)) -4.7): 109.491 | LCA dose response, Mean (Figure 1B) (Log (conc(M)) -4.82): 110.318 | LCA dose response, Mean (Figure 1B) (Log (conc(M)) -5): 102.555 | LCA dose response, Mean (Figure 1B) (Log (conc(M)) -5.5): 100.737 | LCA dose response, Mean (Figure 1B) (Log (conc(M)) -6): 101.723

COC(=O)[C@@H](NC(=O)[C@H](CCC(=O)OC(C)(C)C)NC(=O)[C@H](CC(C)C)NC(=O)[C@@H]1CCCN1C(=O)OCc1ccccc1)C(C)C [PW164] (Cbz-PLE(OtBu)V-OMe)
LCA screening of the PW-series compounds against the FGF13/Nav1.7 complex (Fig. S2C) (50 μM, individual replicates, vehicle about 100): 52.9829 and 54.4974 and 52.792 and 43.8067 and 53.8102 and 54.3574 and 65.3028 and 53.9247 | Percentage luminescence, Mean (Log (conc(M)) -3.6): 36.225% | Percentage luminescence, Mean (Log (conc(M)) -3.82): 36.175% | Percentage luminescence, Mean (Log (conc(M)) -4): 36.8% | Percentage luminescence, Mean (Log (conc(M)) -4.12): 37.575% | Percentage luminescence, Mean (Log (conc(M)) -4.22): 41.95% | Percentage luminescence, Mean (Log (conc(M)) -4.3): 49.1% | Percentage luminescence, Mean (Log (conc(M)) -4.4): 55.95% | Percentage luminescence, Mean (Log (conc(M)) -4.6): 72.975% | Percentage luminescence, Mean (Log (conc(M)) -4.7): 78.7625% | Percentage luminescence, Mean (Log (conc(M)) -4.82): 95.2% | Percentage luminescence, Mean (Log (conc(M)) -5): 102.25% | Percentage luminescence, Mean (Log (conc(M)) -5.5): 98.45% | Percentage luminescence, Mean (Log (conc(M)) -6): 97.8125% | Luminescence signal over time, mean (Fig 1B, Time 0): 229.9 | Luminescence signal over time, mean (Fig 1B, Time 5): 547.2 | Luminescence signal over time, mean (Fig 1B, Time 10): 954.8 | Luminescence signal over time, mean (Fig 1B, Time 15): 1153.7 | Percentage luminescence, single replicates (Fig 1B, FGF13, PW164 (20 μM)): 42.7306% and 39.5799% and 34.1155% and 47.555% and 46.8165% and 80.4398% and 35.0509% and 53.5117% and 52.6748% and 30.1772% and 36.3308% | LCA analysis of FGF13/Nav1.7 (Figure 8D, WT PW164, replicate values beside WT DMSO): 48.4338 and 51.009 and 48.3348 and 45.8586 and 44.3729 and 45.9577 and 44.0758 and 49.7469 and 51.824 and 46.8389 and 47.9813 | IC50 (LCA dose response, Fig 1B, read-out: IC50, inhibition of FGF13/Nav1.7 complex assembly): 29 ± 5 µM
